pIC50: −log10 of the molar value. Read-outs that look alike come from different tables or passages of the source.
Tests used:
[1] = tested on: hepatocytes
Experimental: As described further below, in certain embodiments, the number of bright and/or punctate regions in the lysosomal marker image is used as an indication of phospholipidosis.
An exemplary procedure for preparing hepatocyte cultures will now be described. Specifically, the procedure involves the use of primary rat hepatocytes as follows:
11. Twenty three thousand cells/well are plated in a 96 flat well plate pre-coated with collagen I (BD Biosciences, San Jose, Calif. or CellzDirect, Tucson, Ariz.). The plates are incubated at 37° C./5% CO2 for two hours. At the end of the two hour incubation, plating medium is aspirated and cold Hepatozyme medium containing 250 micrograms/ml of Matrigel (BD Biosciences) is added, and the plates are incubated overnight.
The following example is a procedure for fixing and staining primary rat hepatocytes to visualize nuclei, lysotracker, and Alexa 647 nm succinimidyl ester reagent (A647SE). A647SE is used to segment individual hepatocytes within an image. • 1) At 24 hr after compound addition to cells, 50 ul of Hepatozyme medium (prewarmed to 37° C.) containing 187.5 nM of lysotracker dye is added to each well. Plates are placed back to incubator for 30 min, then 150 μl of fix solution (8% paraformaldehyde, in 1× PBS) and incubate at room temperature for 30 min. • 2) Aspirate the fix solution, and add 350 μl of wash buffer (1× PBS, 0.02% Triton X-100) to each well. Aspirate and dispense wash buffer 2 times. • 3) Aspirate off the wash buffer, and add 100 ul per well of A647SE mix: 0.5 μg/ml A647SE (stock 10 mg/ml) and 1:1000 dilution of Hoechst 33342 (stock 5 mg/ml) in wash buffer. Incubate at room temperature for one hour in the dark. • 4) Aspirate the staining solution, and add 350 μl of wash buffer (1× PBS, […]) to each well. Aspirate and dispense wash buffer 2 times. Leave the last wash buffer in the well. • 5) Seal the plate and store at room temperature in the dark prior to imaging.
In certain embodiments, a stimulus response curve may be generated for a stimulus of interest. In certain embodiments, the stimulus response curve plots the feature or features used to characterize phospholipidosis (e.g., granularity or mean intensity) against concentrations of a stimulus.

[2] = tested on: hepatocytes; assay: Cell death of hepatocytes treated with compound; assay type: cell-based; conditions: Rattus norvegicus, Hepatocyte, arrow in FIG. 5A

mean intensity of the LysoTracker marker (per-cell basis) versus concentration [1]	proportion of bright/punctate cells (LysoTracker images) [1]	total granularity versus concentration [1]	SMILES	proportion of bright/punctate cells (LysoTracker images) ([1]; at several concentrations below EC50 of cell death, FIG. 2B, versus DMSO control)	induction of phospholipidosis as concluded from the response curves [1]	pIC50 [2]
–	–	–	C[C@H](CCC(=O)NCCS(=O)(=O)O)[C@H]1CC[C@H]2[C@@H]3CC[C@@H]4C[C@H](O)CC[C@]4(C)[C@H]3CC[C@]12C [Taurolithocholate, taurolithocholate]	decrease	–	–
increases	increase	spikes	CN(C)CCCN1c2ccccc2Sc2ccc(Cl)cc21 [chlorpromazine]	–	induced phospholipidosis	4.60
